Experimental data reported in patent US20060014806A1 (published 2006).

Compound | melting point [°C]
CO/N=C1/C=C(c2ccc(OCCCOc3c(Cl)cc(OCC=C(Cl)Cl)cc3Cl)cc2)CC1 | 100 to 103
CC(C)NC(=O)/C(C#N)=C/c1ccc(OCCCOc2c(Cl)cc(OCC=C(Cl)Cl)cc2Cl)cc1 | 88 to 93
COC(=O)NCC#Cc1ccc(OCCCOc2c(Cl)cc(OCC=C(Cl)Cl)cc2Cl)cc1 | 78 to 81
